“And” between values parts separate entries of the source, which are not always exact repeats. Equal values may be shown once. Inconclusive results and toxic doses are left out. Rule as the data show it: active = T/C of 150% or more; inactive = T/C below 125%.
System: L1210 leukemia ip in BDF1 mice, survival T/C
Experiment: NCI In Vivo Anticancer Drug Screen. Data for tumor model L1210 Leukemia (intraperitoneal) in B6D2F1 (BDF1) mice
Conditions: endpoint: mean survival time, higher = longer survival
Method in brief: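 Transplanted-tumor mice were given test agent; controls received vehicle only. Survival readings from the two groups were divided (treated over control).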

[1] = dose: 50.0 mg/kg/injection, schedule: Q04DX003 (ip), vehicle: saline with Tween-80
[2] = dose: 100.0 mg/kg/injection, schedule: Q04DX003 (ip), vehicle: saline with Tween-80
[3] = dose: 100.0 mg/kg/injection, schedule: Q01DX009 (ip), vehicle: saline
[4] = dose: 200.0 mg/kg/injection, schedule: Q01DX009 (ip), vehicle: saline
[5] = dose: 400.0 mg/kg/injection, schedule: Q01DX009 (ip), vehicle: saline
[6] = dose: 100.0 mg/kg/injection, schedule: Q01DX001 (ip), vehicle: carboxymethylcellulose (CMC)
[7] = dose: 100.0 mg/kg/injection, schedule: Q01DX009 (ip), vehicle: saline with Tween-80
[8] = dose: 200.0 mg/kg/injection, schedule: Q01DX001 (ip), vehicle: carboxymethylcellulose (CMC)
[9] = dose: 200.0 mg/kg/injection, schedule: Q01DX009 (ip), vehicle: saline with Tween-80
[10] = dose: 200.0 mg/kg/injection, schedule: Q04DX003 (ip), vehicle: saline with Tween-80
[11] = dose: 400.0 mg/kg/injection, schedule: Q01DX001 (ip), vehicle: carboxymethylcellulose (CMC)
[12] = dose: 400.0 mg/kg/injection, schedule: Q01DX009 (ip), vehicle: saline with Tween-80
[13] = dose: 400.0 mg/kg/injection, schedule: Q04DX003 (ip), vehicle: saline with Tween-80
[14] = dose: 100.0 mg/kg/injection, schedule: Q01DX009 (ip), vehicle: Klucel (hydroxypropylcellulose) (HPC)
[15] = dose: 200.0 mg/kg/injection, schedule: Q01DX009 (ip), vehicle: Klucel (hydroxypropylcellulose) (HPC)
[16] = dose: 400.0 mg/kg/injection, schedule: Q01DX009 (ip), vehicle: Klucel (hydroxypropylcellulose) (HPC)
[17] = dose: 50.0 mg/kg/injection, schedule: Q01DX009 (ip), vehicle: saline
[18] = dose: 100.0 mg/kg/injection, schedule: Q04DX003 (ip), vehicle: saline
[19] = dose: 200.0 mg/kg/injection, schedule: Q04DX003 (ip), vehicle: saline
[20] = dose: 400.0 mg/kg/injection, schedule: Q04DX003 (ip), vehicle: saline

Measured: T/C

CC(=O)OCN1C(=O)C2C3CCC(O3)C2C1=O (stereo not given)
inactive: dose: 25.0 mg/kg/injection, schedule: Q04DX003 (ip), vehicle: saline with Tween-80 104 % of control | [1] 98 % of control | dose: 100.0 mg/kg/injection, schedule: Q01DX001 (ip), vehicle: saline with Tween-80 106 % of control | [2] 95 % of control and 104 % of control | dose: 200.0 mg/kg/injection, schedule: Q01DX001 (ip), vehicle: saline with Tween-80 98 % of control

CNC
inactive: dose: 25.0 mg/kg/injection, schedule: Q04DX002 (ip), vehicle: saline with Tween-80 95 % of control | dose: 50.0 mg/kg/injection, schedule: Q04DX002 (ip), vehicle: saline with Tween-80 88 % of control | dose: 100.0 mg/kg/injection, schedule: Q04DX002 (ip), vehicle: saline with Tween-80 88 % of control

CC(C)(C)CC(C)(C)c1ccc(OCCOc2ccc(S(=O)(=O)O)cc2[N+](=O)[O-])cc1
inactive: [3] 105 % of control | [4] 105 % of control | [5] 100 % of control

NC(Cc1cccs1)C(=O)O (stereo not given)
inactive: [6] 96 % of control | [7] 101 % of control | [2] 99 % of control | [8] 101 % of control | [9] 104 % of control | [10] 99 % of control | dose: 250.0 mg/kg/injection, schedule: Q01DX Z (ip), vehicle: carboxymethylcellulose (CMC) 89 % of control | [11] 101 % of control | [12] 97 % of control | [13] 96 % of control | dose: 1000.0 mg/kg/injection, schedule: Q01DX Z (ip), vehicle: carboxymethylcellulose (CMC) 92 % of control

O=C(Nc1ccc(C(=O)Nc2ccc(C3=NCCCN3)cc2)cc1)Nc1ccc(C2=NCCCN2)cc1
inactive: dose: 0.94 mg/kg/injection, schedule: Q01DX Z (ip), vehicle: saline 103 % of control | dose: 1.88 mg/kg/injection, schedule: Q01DX Z (ip), vehicle: saline 117 % of control | dose: 18.8 mg/kg/injection, schedule: Q01DX004 (oral), vehicle: saline 94 % of control | dose: 37.5 mg/kg/injection, schedule: Q01DX009 (oral), vehicle: saline 91 % of control | dose: 75.0 mg/kg/injection, schedule: Q01DX009 (oral), vehicle: saline 93 % of control | dose: 150.0 mg/kg/injection, schedule: Q01DX004 (oral), vehicle: saline 93 % of control

O=C1c2ccccc2S(=O)(=O)N1CCCBr
inactive: [14] 89 % of control | [15] 89 % of control | [16] 89 % of control

O=C(O)c1ccccc1NCc1cc(=O)[nH]c(=O)[nH]1
inactive: [2] 101 % of control | [10] 98 % of control | [13] 95 % of control

CC(=O)Nc1ccc(OC(=O)Nc2ccc(Cl)c([N+](=O)[O-])c2)cc1
inactive: [14] 97 % of control | dose: 100.0 mg/kg/injection, schedule: Q04DX003 (ip), vehicle: Klucel (hydroxypropylcellulose) (HPC) 112 % of control | [15] 104 % of control | dose: 200.0 mg/kg/injection, schedule: Q04DX003 (ip), vehicle: Klucel (hydroxypropylcellulose) (HPC) 97 % of control | [16] 93 % of control | dose: 400.0 mg/kg/injection, schedule: Q04DX003 (ip), vehicle: Klucel (hydroxypropylcellulose) (HPC) 92 % of control

CCCCCCCCC1SC1CCCCCCCCOC(=O)CCCCCCCC1SC1CCCCCCCC (stereo not given)
inactive: [7] 101 % of control | [9] 93 % of control | [12] 91 % of control

O=C(O)C(CCl)(CCl)CCl
inactive: [17] 106 % of control | [3] 98 % of control | [4] 95 % of control

O=C1C(=O)C(CCc2ccccc2)C(=O)/C1=C\c1ccccc1 (stereo not given)
inactive: [2] 95 % of control | [10] 86 % of control

O=S(=O)(O)c1ccc(CCCCCCl)cc1
inactive: dose: 100.0 mg/kg/injection, schedule: Q01DX009 (ip), vehicle: saline sonified 107 % of control | [18] 95 % of control | dose: 200.0 mg/kg/injection, schedule: Q01DX009 (ip), vehicle: saline sonified 98 % of control | [19] 100 % of control | dose: 400.0 mg/kg/injection, schedule: Q01DX009 (ip), vehicle: saline sonified 101 % of control | [20] 96 % of control

CCOC(=O)Nc1nc(NC(=O)OCC)c(Cl)nc1Cl
inactive: dose: 25.0 mg/kg/injection, schedule: Q01DX009 (ip), vehicle: water 104 % of control | dose: 50.0 mg/kg/injection, schedule: Q01DX009 (ip), vehicle: water 100 % of control | dose: 100.0 mg/kg/injection, schedule: Q01DX009 (ip), vehicle: water 114 % of control | dose: 200.0 mg/kg/injection, schedule: Q01DX009 (ip), vehicle: water 106 % of control | dose: 400.0 mg/kg/injection, schedule: Q01DX009 (ip), vehicle: water 97 % of control

O=C1NC(=O)C2C3C=CC(C3)C12 (stereo not given)
inactive: dose: 50.0 mg/kg/injection, schedule: Q01DX001 (ip), vehicle: Klucel (hydroxypropylcellulose) (HPC) 101 % of control | dose: 100.0 mg/kg/injection, schedule: Q01DX001 (ip), vehicle: Klucel (hydroxypropylcellulose) (HPC) 99 % of control | dose: 200.0 mg/kg/injection, schedule: Q01DX001 (ip), vehicle: Klucel (hydroxypropylcellulose) (HPC) 101 % of control

CC1(C)N=C(N)N=C(N)N1c1ccc2c(Cl)c(Cl)ccc2c1
inactive: [1] 106 % of control | [2] 107 % of control and 114 % of control | [10] 107 % of control

C[N+]1(CCCl)CC[N+](C)(CCCl)CC1 (stereo not given)
inactive: [6] 101 % of control | dose: 100.0 mg/kg/injection, schedule: Q01DX009 (ip), vehicle: carboxymethylcellulose (CMC) 97 % of control and 92 % of control | [3] 97 % of control | dose: 100.0 mg/kg/injection, schedule: Q04DX002 (ip), vehicle: carboxymethylcellulose (CMC) 97 % of control | dose: 100.0 mg/kg/injection, schedule: Q04DX002 (ip), vehicle: saline 112 % of control | dose: 100.0 mg/kg/injection, schedule: Q04DX003 (ip), vehicle: carboxymethylcellulose (CMC) 97 % of control | [8] 105 % of control | dose: 200.0 mg/kg/injection, schedule: Q01DX009 (ip), vehicle: carboxymethylcellulose (CMC) 97 % of control and 100 % of control | [4] 101 % of control | dose: 200.0 mg/kg/injection, schedule: Q04DX002 (ip), vehicle: carboxymethylcellulose (CMC) 100 % of control and 103 % of control | dose: 200.0 mg/kg/injection, schedule: Q04DX002 (ip), vehicle: saline 105 % of control | dose: 200.0 mg/kg/injection, schedule: Q04DX003 (ip), vehicle: carboxymethylcellulose (CMC) 100 % of control | [11] 97 % of control | dose: 400.0 mg/kg/injection, schedule: Q01DX009 (ip), vehicle: carboxymethylcellulose (CMC) 101 % of control and 91 % of control | [5] 101 % of control | dose: 400.0 mg/kg/injection, schedule: Q04DX002 (ip), vehicle: carboxymethylcellulose (CMC) 93 % of control | dose: 400.0 mg/kg/injection, schedule: Q04DX003 (ip), vehicle: carboxymethylcellulose (CMC) 103 % of control

CC(=O)Nc1cccc2ccccc12
inactive: [2] 97 % of control | [10] 101 % of control | [13] 100 % of control

C=CC(=O)Nc1cccc(OC(=O)NC(C)C)c1
inactive: [2] 89 % of control | [10] 97 % of control | [13] 103 % of control

CC(C)C(O)(C(=O)NN)C(=O)NN
inactive: [14] 100 % of control | [18] 105 % of control | [15] 90 % of control | [19] 96 % of control | [16] 93 % of control | [20] 103 % of control

CC(C)OCc1c(N)nc(=S)[nH]c1C(=O)O
inactive: dose: 12.0 mg/kg/injection, schedule: Q01DX009 (ip), vehicle: saline 90 % of control | dose: 25.0 mg/kg/injection, schedule: Q01DX009 (ip), vehicle: saline 97 % of control | dose: 25.0 mg/kg/injection, schedule: Q04DX003 (ip), vehicle: saline 106 % of control | [17] 103 % of control and 92 % of control | dose: 50.0 mg/kg/injection, schedule: Q04DX003 (ip), vehicle: saline 97 % of control | [18] 102 % of control and 90 % of control

From PubChem BioAssay AID248 (DTP/NCI, 2004)
